US20230346831A1, “METHODS FOR TREATING […] USING LOW DOSE CARBON MONOXIDE” (priority 2020, published 2023)

Legend:
MDA-MB-231/TGL cells = assay: experimental tail vein lung metastasis assay, human breast cancer xenograft; assay type: in vivo, NSG mice
Experimental: NSG mice were generated by the Jackson Laboratory. All mice were housed in accordance with the institutional guidelines. All procedures involving mice were approved by the institutional animal care and use committee of Weill Cornell Medicine. 1 × 10^5 or 5 × 10^4 MDA-MB-231/TGL cells in 150 µl PBS were injected into the tail veins of female NSG mice at the age of 7-8 weeks (n=5/group for 1× 10^5 cells and n = 6/group for 5 × 10^4 cells). 1× 10^4 8988T/TGL cells in 100 µl PBS were injected into spleen of NSG mice at age of 7-8 weeks (n=4/group, male and female) to observe the liver metastasis (G. Zhang, & Y. N. Du, Methods Mol Biol 1882, 309-320 (2019)). The spleen was removed after the injection. Starting one day after injection, mice were randomized into two groups. One group was kept in a regular mouse holding room (control), and the other group was put into a chamber delivering 250 ppm CO 3 hours daily. Mice were subjected to bioluminescent imaging using the In Vivo Imaging System Spectrum (PerkinElmer, Waltham, MA) at 0, 1, 3 days and then weekly after tumor cells were injected until the final time points, as described previously by Y. C. Du, D. S. Klimstra, & H. Varmus, PLoS One 4, e6932 (2009)). Luciferase signals were transformed to nature log scale before analysis. GEE method was used to test the overall difference of tumor growth over time. All analyses were performed in statistical software SAS Version 9.4 (SAS Institute, Cary, NC).
Mouse tissues were removed and fixed in 10% buffered formalin overnight at room temperature. Formalin-fixed/paraffin-embedded sections (5-µm) were deparaffinized and rehydrated by passage through a graded xylene/ethanol series before staining. Immunochemistry was performed using the VECTASTAIN Elite ABC kit following the manufacturer’s instructions. Tumor number and tumor size were quantified by scanning the whole tissue slide of each mouse under microscope. The size of tumor area of each tumor was measured by the cellSens imaging software (Olympus, Tokyo, Japan). Total tumor area of each mouse or total tumor number of each mouse was plotted. The primary antibodies used were cleaved caspase 3 (1:333; Cell Signaling Tech (Cat. No. 9661), Danvers, MA) and Ki67 (1:1000, Vector Labs (Cat. No. VP-K451), Burlingame, CA).
To determine whether 250 ppm CO inhibits cancer metastasis in vivo, an experimental tail vein metastasis assay with TNBC MDA-MB-231 cell line was performed. 0.1 million MDA-MB-231/TGL (luciferase reporter) cells were injected into the tail vein of the NOD/scid-lL2Rgc knockout (NSG) immunodeficient mice. Mice were randomly divided in to two groups after injection. […]

N134/RHAMM^B cells = assay: tail vein liver metastasis model; assay type: in vivo; details: 1.5 × 10^6 N134/RHAMM^B cells tail vein, NSG mice, 250 ppm CO 3 hours daily, 24 days
Experimental: NSG mice were injected with 0.1 million (FIGS. 3A-3B) or 5 × 10^4 (FIGS. 3C-3E) MDA-MB-231/TGL breast cancer cells through tail vein or 8988T/TGL pancreatic cancer cells through spleen (FIGS. 3F-3H). Mice were randomly divided into two groups after injection. One group of mice was kept in regular mouse holding room all the time while the other group was treated with 250 ppm CO for 3 hours daily starting one day after injection. FIGS. 3C and 3F: bioluminescent imaging was taken at day 0, day 1, day3 and then once a week and signals from the whole mice were plotted. FIGS. 3A, 3D and 3G: organs were harvested for histological analysis. Representative H&E stained images of metastatic tumors in the lung sections (FIGS. 3A and 3D) and in the liver sections (FIG. 3G) were shown. Metastatic tumor areas or numbers of mets on the H&E stained sections for each mouse were quantified (FIGS. 3B, 3E and 3H).
In another experiment, immunodeficient NOD/scid-IlL2Rgc knockout mice were injected with 1.5 × 10^6 N134/RHAMM^B cells in 120 µl PBS via tail veins. Tumors developed 24 days after injection with 1.5 × 10^6 N134/RHAMM^B cells, and livers were assessed.

HCP1 = assay: quantitative real-time reverse transcription PCR; assay type: cell-based, human; details: MCF7/TGL and MDA-MB-231/TGL cells; 250 ppm CO
Experimental: (§1) mRNA was isolated from cells (MCF7/TGL and MDA-MB-231/TGL) grown on 6-cm dishes using RNeasy mini kit (Qiagen, Hilden, Germany) containing gDNA Eliminator spin columns. cDNA was generated using the SuperScript III First-strand synthesis system with random hexamers (Invitrogen, Carlsbad, CA), and power SYBR green (Invitrogen, Carlsbad, CA)-based quantitative real-time PCR was performed using primer specific for HRG1 (human, forward: 5′- […] -3′ (SEQ ID NO: 1), reverse: 5′- […] -3′ (SEQ ID NO: 2)) or HCP1 (human forward: 5′- […] -3′ (SEQ ID NO: 3), reverse: 5′-[…] -3′ (SEQ ID NO: 4)), CYP1B1 (human, forward: 5′TGAGTGCCGTGTGTTTCGG -3′ (SEQ ID NO: 5), reverse: 5′-[…] -3′ (SEQ ID NO: 6)), SP1 (human, forward: 5′-GTGGCCGCTACCTTCACTG -3′ (SEQ ID NO: 7), reverse: 5′-GCCCCACTCCTACTTGGTC -3′ (SEQ ID NO: 8)) with the comparative CT method (ΔΔCT; ABI).
(§2) To investigate how CO reduces heme levels, whether CO decreased the transportation of heme into the cytosol was examined. […] Furthermore, heme oxygenases (HO-1, HO-2, and HO-3) cleave heme into 3 products: CO, ferrous ions (Fe2+), and biliverdin. […] Likewise, changes in protein levels of Bach 1 (a physiological repressor of HO-1 and a pro-metastatic transcription factor, whose degradation is reported to be mediated by heme in Nrf2-mutated lung cancer) was not detected (FIG. 4E). […]

HRG1 = assay: quantitative real-time reverse transcription PCR; assay type: cell-based, human; details: MCF7/TGL and MDA-MB-231/TGL cells; 250 ppm CO
Experimental: as §1, §2

[C-]#[O+] [CO, Carbon monoxide]
metastatic tumor burden in lung sections (histological analysis) (MDA-MB-231/TGL cells; 0.1 million MDA-MB-231/TGL cells tail vein, NSG mice, 250 ppm CO gas 3 hours daily, 23-day time point, vs control): significantly lower
appearance / signs of sickness of the mice (MDA-MB-231/TGL cells; 0.1 million MDA-MB-231/TGL cells tail vein, 250 ppm CO 3 hours daily, control group lethargic after 23 days): looked healthy and had no signs of sickness
metastatic tumor burden in lung sections (histological analysis) (MDA-MB-231/TGL cells; 5 × 10^4 MDA-MB-231/TGL cells tail vein, 250 ppm CO 3 hours daily, 7 days/week, 25 days after the injection): significantly lower
bioluminescent signals (whole mice) over time (MDA-MB-231/TGL cells; 5 × 10^4 MDA-MB-231/TGL cells tail vein, 250 ppm CO 3 hours daily, 7 days/week, imaging to 3 weeks, P = 0.0016, GEE method): significantly lower
total metastatic pancreatic tumor burden in the liver (N134/RHAMM^B cells): showed a trend to reduce
liver metastases (N134/RHAMM^B cells; vs untreated controls): reduced
HCP1 mRNA expression (HCP1): reduced
HRG1 mRNA expression (HRG1): reduced
